Calls of active or inactive are those of the source. No cut-off for these calls is given here.
Assays:
HepG2 = assay: Cytotoxicity against telomerase-positive human HepG2 cells assessed as inhibition of cell growth incubated for 48 hrs by MTT assay; type: functional, cell-based; details: HepG2, 48 h
PC-3 = assay: Cytotoxicity against telomerase-positive human PC-3 cells assessed as inhibition of cell growth incubated for 48 hrs by MTT assay; type: functional, cell-based; details: PC-3, 48 h
A549 = assay: Cytotoxicity against telomerase-positive human A549 cells assessed as inhibition of cell growth incubated for 48 hrs by MTT assay; type: functional, cell-based; details: A549, 48 h
Quadruplex DNA [1] = assay: Binding affinity to Telo21 G4 DNA (unknown origin) assessed as change in gibbs free energy at 400 uM by ITC analysis; type: nucleic-acid assay
Quadruplex DNA [2] = assay: Binding affinity to hTERT G4 DNA assessed as thermal stability by measuring change in melting temperature at 400 uM […]; type: nucleic-acid assay; details: Homo sapiens
[3] = Selectivity ratio of binding affinity to human TERT G4 DNA to binding affinity to RET G4 DNA (unknown origin)
[4] = Selectivity ratio of binding affinity to human TERT G4 DNA to binding affinity to 4a4t duplex DNA (unknown origin)
[5] = Selectivity ratio of binding affinity to human TERT G4 DNA to binding affinity to Dt21 ssDNA (unknown origin)
DNA = assay: Binding affinity to DNA in telomerase-positive live human MDA-MB-231 cells at 5 uM preincubated for 10 mins followed by washout and RNase A addition measured after 2 hrs by Hoechst 33342 staining based confocal microscopic analysis; type: cell-based
Quadruplex DNA [6] = assay: Binding affinity to G4 DNA in telomerase-positive live human MDA-MB-231 cells assessed as colocalization of BG4 and compound at 5 uM incubated for 2 hrs by immunofluorescence assay; type: cell-based
MDA-MB-231 [7] = assay: Cytotoxicity against human MDA-MB-231 cells without hTERT overexpression assessed as inhibition of cell growth measured after 48 hrs by MTT assay; type: functional, cell-based; details: MDA-MB-231, 48 h
MDA-MB-231 [8] = assay: Downregulation of hTERT mRNA expression in human MDA-MB-231 cells measured after 48 hrs by qRT-PCR analysis; type: functional, cell-based; details: dose 0-1.5 µM
MDA-MB-231 [9] = assay: Inhibition of TRF2 protein expression in human MDA-MB-231 cells measured after 48 hrs by Western blot analysis; type: functional, cell-based; details: dose 0-1.5 µM
[10] = target: Telomerase reverse transcriptase (Homo sapiens) (UniProt O14746); assay: Inhibition of telomerase activity in human MDA-MB-231 cells at >=1 uM incubated for 30 mins by SYBR Gold staining based TRAP assay; type: cell-based
Chain of Telomerase reverse transcriptase (Homo sapiens) (O14746 whole entry): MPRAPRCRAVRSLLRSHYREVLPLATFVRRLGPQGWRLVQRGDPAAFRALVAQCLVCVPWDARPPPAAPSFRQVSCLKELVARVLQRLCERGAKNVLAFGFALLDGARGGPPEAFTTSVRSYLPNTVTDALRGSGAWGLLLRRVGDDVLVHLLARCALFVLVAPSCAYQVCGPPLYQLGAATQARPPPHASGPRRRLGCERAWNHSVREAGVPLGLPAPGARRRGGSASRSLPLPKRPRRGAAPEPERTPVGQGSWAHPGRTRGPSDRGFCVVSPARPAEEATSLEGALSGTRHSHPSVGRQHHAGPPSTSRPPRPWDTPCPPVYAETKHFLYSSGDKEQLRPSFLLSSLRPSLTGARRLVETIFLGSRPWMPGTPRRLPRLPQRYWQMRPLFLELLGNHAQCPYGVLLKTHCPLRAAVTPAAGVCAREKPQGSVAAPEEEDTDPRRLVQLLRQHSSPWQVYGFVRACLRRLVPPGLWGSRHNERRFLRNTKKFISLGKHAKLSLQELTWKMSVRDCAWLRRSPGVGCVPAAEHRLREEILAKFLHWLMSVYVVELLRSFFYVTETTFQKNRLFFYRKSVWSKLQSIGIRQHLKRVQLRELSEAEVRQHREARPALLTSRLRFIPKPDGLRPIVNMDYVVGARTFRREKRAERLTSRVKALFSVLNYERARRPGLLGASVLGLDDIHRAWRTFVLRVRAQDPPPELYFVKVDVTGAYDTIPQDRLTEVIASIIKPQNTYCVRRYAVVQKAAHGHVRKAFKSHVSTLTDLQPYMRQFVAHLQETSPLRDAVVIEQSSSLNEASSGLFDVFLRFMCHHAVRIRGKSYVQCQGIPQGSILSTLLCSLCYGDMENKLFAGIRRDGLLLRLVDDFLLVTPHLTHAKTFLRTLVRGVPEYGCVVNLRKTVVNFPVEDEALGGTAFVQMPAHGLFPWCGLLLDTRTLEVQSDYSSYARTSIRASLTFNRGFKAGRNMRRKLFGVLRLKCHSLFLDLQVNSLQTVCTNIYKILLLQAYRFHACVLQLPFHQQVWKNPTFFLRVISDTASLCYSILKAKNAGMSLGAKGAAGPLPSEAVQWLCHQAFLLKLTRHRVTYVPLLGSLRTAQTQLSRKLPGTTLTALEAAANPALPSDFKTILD

MDA-MB-231 [11] = assay: Induction of telomere dysfunction in human MDA-MB-231 cells assessed as cellular senescence at 0.2 uM measured after 10 days by SA-beta-gal staining based analysis; type: functional, cell-based; details: time 10.0 day
MDA-MB-231 [12] = assay: Induction of DNA damage in human MDA-MB-231 cells assessed as upregulation of 53BP1 protein expression measured after 48 hrs by Western blot analysis; type: functional, cell-based; details: dose 0-1.5 µM
MDA-MB-231 [13] = assay: Activation of apoptosis in human MDA-MB-231 cells assessed as upregulation of BAX protein expression measured after 48 hrs by Western blot analysis; type: functional, cell-based; details: dose 0-1.5 µM
MDA-MB-231 [14] = assay: Induction of mitochondrial dysfunction in human MDA-MB-231 cells assessed as downregulation of mitochondrial respiratory complex I-NDUFB8 expression incubated for 48 hrs by Western blot analysis; type: functional, cell-based; details: dose 0-1.5 µM
MDA-MB-231 [15] = assay: Induction of mitochondrial dysfunction in human MDA-MB-231 cells assessed as downregulation of mitochondrial respiratory complex II-SDHB expression incubated for 48 hrs by Western blot analysis; type: functional, cell-based; details: dose 0-1.5 µM
MDA-MB-231 [16] = assay: Induction of mitochondrial dysfunction in human MDA-MB-231 cells assessed as mitochondrial membrane potential impairment at 0 to 1.5 uM incubated for 48 hrs by Hoechst33342 staining based microscopic analysis; type: functional, cell-based; details: dose 0-1.5 µM
MDA-MB-231 [17] = assay: Induction of mitochondrial dysfunction in human MDA-MB-231 cells assessed as increase in mitochondrial ROS production at 0 to 1.5 uM incubated for 48 hrs by Hoechst33342 staining based microscopic analysis; type: functional, cell-based; details: dose 0-1.5 µM
MDA-MB-231 [18] = assay: Disruption of energy metabolism in human MDA-MB-231 cells assessed as increase in ECAR at 0 to 1.5 uM measured after 2 hrs by Seahorse XF24 analyzer; type: functional, cell-based; details: dose 0-1.5 µM
MDA-MB-231 [19] = assay: Induction of autophagy in human MDA-MB-231 cells assessed as engulfment of damaged mitochondria by lysosomes by measuring lysosome-mitochondria colocalization at 0 to 1.5 uM measured after 48 hrs by LysoTracker Blue DND-22/MitoTracker Deep Red FM staining based confocal microscopic analysis; type: functional, cell-based; details: dose 0-1.5 µM
MDA-MB-231 [20] = assay: Downregulation of Artemis transcription level in human MDA-MB-231 cells at 1 uM measured after 48 hrs by RNA-seq analysis; type: functional, cell-based
MDA-MB-231 [21] = assay: Downregulation of ND3 gene expression in human MDA-MB-231 cells at 1 uM measured after 48 hrs by RNA-seq analysis; type: functional, cell-based
[22] = Upregulation of TNFSF10 gene expression in human MDA-MB-231 cells assessed as fold change at 1 uM measured after 48 hrs by RNA-seq analysis relative to control; type: functional
[23] = Upregulation of IL-1A gene expression in human MDA-MB-231 cells assessed as fold change at 1 uM measured after 48 hrs by RNA-seq analysis relative to control; type: functional
[24] = Upregulation of CALML6 gene expression in human MDA-MB-231 cells assessed as fold change at 1 uM measured after 48 hrs by RNA-seq analysis relative to control; type: functional
[25] = Toxicity in female Balb/c nude mouse xenografted with human MDA-MB-231 cells assessed as signs of ulcer at 2 to 5 mg/kg, iv administered via tail vein every 2 days for 16 days; type: organism-based; details: in vivo, 384 h, dose 2-5 mg/kg, time 16 day
[26] = Toxicity in female Balb/c nude mouse xenografted with human MDA-MB-231 cells assessed as signs of pain at 2 to 5 mg/kg, iv administered via tail vein every 2 days for 16 days; type: organism-based; details: in vivo, 384 h, dose 2-5 mg/kg, time 16 day
MDA-MB-231 [27] = assay: Antitumor activity against human MDA-MB-231 cells xenografted in female Balb/c mouse assessed as inhibition of tumor cell proliferation at 5 mg/kg, iv administered via tail vein every 2 days for 16 days by Ki67 staining based assay; type: functional, organism-based; details: time 16.0 day
[28] = Toxicity in female Balb/c nude mouse xenografted with human MDA-MB-231 cells assessed as change in WBC count at 2 to 5 mg/kg, iv administered via tail vein every 2 days for 16 days; type: organism-based; details: in vivo, 384 h, dose 2-5 mg/kg, time 16 day
[29] = Toxicity in female Balb/c nude mouse xenografted with human MDA-MB-231 cells assessed as change in mean corpuscular hemoglobin at 2 to 5 mg/kg, iv administered via tail vein every 2 days for 16 days; type: organism-based; details: in vivo, 384 h, dose 2-5 mg/kg, time 16 day
[30] = Toxicity in female Balb/c nude mouse xenografted with human MDA-MB-231 cells assessed as pathological changes in spleen at 2 to 5 mg/kg, iv administered via tail vein every 2 days for 16 days by H and E staining based analysis; type: organism-based; details: in vivo, 384 h, dose 2-5 mg/kg, time 16 day
[31] = Toxicity in female Balb/c nude mouse xenografted with human MDA-MB-231 cells assessed as pathological changes in kidney at 2 to 5 mg/kg, iv administered via tail vein every 2 days for 16 days by H and E staining based analysis; type: organism-based; details: in vivo, 384 h, dose 2-5 mg/kg, time 16 day

**Q.** For `C[n+]1c(/C=C/c2c[nH]c3ccccc23)cc(/C=C2\Sc3ccccc3N2CCCN2CCC(C(F)(F)F)CC2)c2ccccc21.[I-]`, which IC50 (HepG2) is on record?
**A.** 2900 nM

**Q.** And the IC50 (PC-3)?
**A.** 2500 nM

**Q.** And the IC50 (A549)?
**A.** 2100 nM

**Q.** And the deltaG (Quadruplex DNA [1])?
**A.** -7.49 kcal/mol

**Q.** What about the ΔTm (Quadruplex DNA [2]) of the same compound?
**A.** 11.7 °C

**Q.** And the Selectivity ratio [3]?
**A.** 2

**Q.** And the Selectivity ratio [4]?
**A.** 3

**Q.** What about the Selectivity ratio [5] of the same compound?
**A.** 18

**Q.** What about the Activity (DNA) of the same compound?
**A.** Active

**Q.** What about the Activity (Quadruplex DNA [6]) of the same compound?
**A.** Active

**Q.** And the IC50 (MDA-MB-231 [7])?
**A.** 1200 nM

**Q.** What about the Activity (MDA-MB-231 [8]) of the same compound?
**A.** Dose-Dependent Effect

**Q.** What about the inhibition (MDA-MB-231 [9]) of the same compound?
**A.** Dose-Dependent Effect

**Q.** What about the inhibition [10] of the same compound?
**A.** Active

**Q.** And the Activity (MDA-MB-231 [11])?
**A.** Active

**Q.** What about the Activity (MDA-MB-231 [12]) of the same compound?
**A.** Dose-Dependent Effect

**Q.** And the Activity (MDA-MB-231 [13])?
**A.** Dose-Dependent Effect

**Q.** And the Activity (MDA-MB-231 [14])?
**A.** Dose-Dependent Effect

**Q.** What about the Activity (MDA-MB-231 [15]) of the same compound?
**A.** Dose-Dependent Effect

**Q.** What about the Activity (MDA-MB-231 [16]) of the same compound?
**A.** Active

**Q.** And the Activity (MDA-MB-231 [17])?
**A.** Active

**Q.** What about the Activity (MDA-MB-231 [18]) of the same compound?
**A.** Active

**Q.** And the Activity (MDA-MB-231 [19])?
**A.** Active

**Q.** What about the Activity (MDA-MB-231 [20]) of the same compound?
**A.** Active

**Q.** And the Activity (MDA-MB-231 [21])?
**A.** Active

**Q.** What about the “fold change (FC)” value [22] of the same compound?
**A.** >2

**Q.** What about the “fold change (FC)” value [23] of the same compound?
**A.** >2

**Q.** What about the “fold change (FC)” value [24] of the same compound?
**A.** >2

**Q.** And the Activity [25]?
**A.** Non-Toxic

**Q.** And the Activity [26]?
**A.** Non-Toxic

**Q.** And the Activity (MDA-MB-231 [27])?
**A.** Active

**Q.** What about the Activity [28] of the same compound?
**A.** Non-Toxic

**Q.** What about the Activity [29] of the same compound?
**A.** Non-Toxic

**Q.** And the Activity [30]?
**A.** Non-Toxic

**Q.** And the Activity [31]?
**A.** Non-Toxic

Reference: ChEMBL document CHEMBL5550185, “Targeting hTERT Promoter G-Quadruplex DNA Structures with Small-Molecule Ligand to Downregulate hTERT Expression for Triple-Negative Breast Cancer Therapy” (J Med Chem, 2024)
